Test results from patent US7439077B2, “Coumarin analog compounds for safer anticoagulant treatment” (New Century Pharmaceuticals, Inc., priority 2002, dated 2008).
“And” between values parts separate entries of the source, which are not always exact repeats. Equal values may be shown once. Read-outs that look alike come from different tables or passages of the source.

Columns and labels:
[1] = target: HSA (Homo sapiens, UniProt P02768); assay: BIACORE binding to HSA; details: Protein: HSA; for Binding Sites: number of binding sites
HSA, sequence (P02768 25-609): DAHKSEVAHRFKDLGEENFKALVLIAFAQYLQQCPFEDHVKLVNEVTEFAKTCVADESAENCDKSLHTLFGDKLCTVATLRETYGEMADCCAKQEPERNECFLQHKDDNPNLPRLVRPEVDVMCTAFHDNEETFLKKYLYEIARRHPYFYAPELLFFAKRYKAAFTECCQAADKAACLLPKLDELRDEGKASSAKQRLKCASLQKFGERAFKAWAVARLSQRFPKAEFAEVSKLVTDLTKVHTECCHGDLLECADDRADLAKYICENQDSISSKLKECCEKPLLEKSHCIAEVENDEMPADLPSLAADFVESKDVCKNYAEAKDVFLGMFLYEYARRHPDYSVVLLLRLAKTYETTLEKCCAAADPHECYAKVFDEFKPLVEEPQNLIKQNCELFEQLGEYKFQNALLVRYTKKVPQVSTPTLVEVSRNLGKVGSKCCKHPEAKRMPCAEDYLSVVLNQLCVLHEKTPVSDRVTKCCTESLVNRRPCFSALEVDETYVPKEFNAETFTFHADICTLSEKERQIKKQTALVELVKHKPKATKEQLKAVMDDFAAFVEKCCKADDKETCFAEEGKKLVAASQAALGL
From the text: (§1) In the following examples, Biacore and Animal Study data were obtained with regard to some of the compounds of the present invention, namely NCP 014, 023, 023a.

[2] = target: human serum albumin (Homo sapiens, UniProt P02768); assay: Crystallographic determination of albumin binding site; details: serum albumin binding region observed
human serum albumin, sequence (P02768 25-609): as above

[3] = target: T1, HSA Fragment (Homo sapiens, UniProt P02768, form not given); assay: BIACORE binding to HSA Fragment; details: human, HSA fragment, Protein: HSA Fragment; read-out: KD2
T1 construct: HSA Fragment
T1 sequence (P02768 whole entry, the tested form may be a part): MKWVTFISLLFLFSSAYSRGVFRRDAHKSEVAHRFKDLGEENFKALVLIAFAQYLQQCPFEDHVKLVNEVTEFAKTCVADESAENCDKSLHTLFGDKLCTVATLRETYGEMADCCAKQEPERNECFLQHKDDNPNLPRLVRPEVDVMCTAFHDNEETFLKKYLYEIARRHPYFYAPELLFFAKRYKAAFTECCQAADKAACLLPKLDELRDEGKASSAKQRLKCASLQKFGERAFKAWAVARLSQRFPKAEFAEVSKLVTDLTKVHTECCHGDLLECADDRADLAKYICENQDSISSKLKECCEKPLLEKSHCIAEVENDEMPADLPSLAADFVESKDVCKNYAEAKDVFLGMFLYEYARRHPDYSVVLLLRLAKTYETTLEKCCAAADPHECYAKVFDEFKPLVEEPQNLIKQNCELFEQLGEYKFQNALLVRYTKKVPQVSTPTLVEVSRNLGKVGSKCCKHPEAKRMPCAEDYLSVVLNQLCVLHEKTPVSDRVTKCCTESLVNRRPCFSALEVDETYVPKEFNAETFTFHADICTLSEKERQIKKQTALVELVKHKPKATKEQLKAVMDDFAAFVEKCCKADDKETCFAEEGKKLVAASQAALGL
From the text: as §1

[4] = target: T2, HSA Fragment (Homo sapiens, UniProt P02768); assay: BIACORE binding to HSA Fragment; details: Protein: HSA Fragment; number of binding sites
T2 construct: HSA Fragment
T2 sequence (P02768 whole entry, the tested form may be a part): as above
From the text: as §1

[5] = target: Rat Albumin (Rattus norvegicus, UniProt P02770); assay: BIACORE binding to Rat Albumin; details: Protein: Rat Albumin; for Binding Sites: number of binding sites; for Kd: read-out: KD1
Rat Albumin, sequence (P02770 25-608): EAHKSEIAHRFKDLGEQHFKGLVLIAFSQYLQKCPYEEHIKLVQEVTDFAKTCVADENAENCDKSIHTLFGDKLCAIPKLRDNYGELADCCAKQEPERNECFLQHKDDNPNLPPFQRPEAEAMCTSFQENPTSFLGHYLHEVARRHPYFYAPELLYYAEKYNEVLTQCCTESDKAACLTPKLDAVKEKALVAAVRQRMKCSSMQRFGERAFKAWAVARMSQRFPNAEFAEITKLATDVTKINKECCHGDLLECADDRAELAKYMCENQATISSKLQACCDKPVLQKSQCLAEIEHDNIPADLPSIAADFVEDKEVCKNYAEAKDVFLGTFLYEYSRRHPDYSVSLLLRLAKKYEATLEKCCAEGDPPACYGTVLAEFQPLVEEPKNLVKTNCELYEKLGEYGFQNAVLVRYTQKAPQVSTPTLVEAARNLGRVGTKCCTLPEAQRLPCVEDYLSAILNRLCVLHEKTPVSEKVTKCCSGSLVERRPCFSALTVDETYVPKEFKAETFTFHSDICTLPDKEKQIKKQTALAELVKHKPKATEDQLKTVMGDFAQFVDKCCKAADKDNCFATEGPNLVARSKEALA
From the text: as §1

Compound | Binding Sites [1] | Kd ([1]; read-out: KD1) | Kd ([1]; human, HSA (human serum albumin), read-out: KD2) [µM] | albumin binding site (location) [2] | Kd [3] [µM] | Binding Sites [4] | Binding Sites [5] | Kd [5] [µM] | Kd ([1]; read-out: KD2)
CCCCCCCCC(CC(C)=O)c1c(O)c2ccccc2oc1=O (stereo not shown) [NCP 014] | 2 and 1 | 0.7 µM and 0.8 µM and 4.6 µM and 6.5 µM | 130 | bind at the IB binding site, and in addition in the IIA binding site, but at a location different than the major site wherein sodium warfarin binds to albumin | 97 | 2 and 1 | 2 | 4.6 | 
CC(=O)CC(Cc1ccccc1)c1c(O)c2ccccc2oc1=O (stereo not shown) [NCP 023] | 2 and 1 |  |  | bind at the IB site of serum albumin unique from the IB endogenous long-chain fatty acid site | 220 |  |  | 85 | 112 µM and 160 µM
CC(=O)CC(Cc1ccc(Cl)cc1)c1c(O)c2ccccc2oc1=O (stereo not shown) [NCP 023a] | 1 and 2 |  |  | bind at the IB site of serum albumin unique from the IB endogenous long-chain fatty acid site | 50 |  | 2 | 11.8 | 40 µM
